SMILES strings stand for the structures.

This note sets out measurements from patent publication US20240415828A1, “TLR7 AGONIST AND COMBINATIONS FOR CANCER TREATMENT” (BIONTECH SE, priority 2021, published 2024).

In experiment [1] the test system is Human PBMCs. As to the kind of experiment: In vitro human PBMC stimulation assay (IFNα, multiplexed CBA). Type of experiment: cell-based. To be noted: 24 h after stimulation, n=5. As to the method: FIG. 1. In vitro human PBMC stimulation assay. […] Data shown as mean±standard deviation (SD), n=5.
(§1) After performing a serial dilution of the test compounds (such as BNT411), 5 μL of each sample is transferred/pipetted to single wells of a 96-well-plate. As negative control, plasma which has been prepared from whole blood of each donor is used. Subsequently, 245 μL of RPMI-medium is added to each well, leading to a 1:50 dilution of each sample, named spiking solutions. The heparinized whole blood is pipetted to separate 96-well-plate. After seeding whole blood, the prepared spiking solutions are added: 190 μL of whole blood is seeded in each well and 10 μL of spiking solutions is added to get a final volume of 200 μL per well and additional 1:20 dilution of all samples. Finally, the plates are incubated at 37° C. and 5% CO2. After 24 h incubation the plates are centrifuged at 500×g for 5 min. The plasma of all samples is harvested, transferred to a new 96-well-plate and frozen at −15° C. to −25° C. until performing the CBA, but at least 3 h.
The CBA is performed with the frozen/thawed plasma samples according to the manufacturer's instructions for ProCarta multiplex kits. For evaluation of cytokine concentrations, assay duplicates of all samples are measured by using the luminex system. […]

Experiment [2] deals with CT26 colon carcinoma cells. As to the kind of experiment: CT26 tumor model, BNT411 alone and with oxaliplatin (Example 4). Type of experiment: in vivo, mouse. On the procedure:
FIG. 5. Anti-tumoral efficacy of BNT411 alone and in combination with oxaliplatin in a tumor mouse model. Mice (n=12 or 13 per group) subcutaneously inoculated with 2.5×10^5 CT26 colon carcinoma cells were used as tumor mouse model. Oxaliplatin was administered intraperitoneally (i.p.) (5 mg/kg, four times with 4 to 5 days between injections). BNT411 was administered i.v. at a dose level of 3 mg/kg eight times with 2 to 5 days interval between injections and at least 2 days after oxaliplatin therapy. Anti-tumor efficacy was evaluated by group mean tumor volumes in test versus control groups (vehicle only) on days 33 and 42 (at least 50% of test and control animals alive). IFNα levels in plasma were analyzed 1 h after first BNT411 administration and gp70+ T-cell populations in blood were analyzed on days 34 and 41. (A) Dosing schedule. (B) Graph showing the tumor volumes vs. days after inoculation. Group mean tumor volumes (±SEM (standard error of the mean)) for all live animals are shown. Treatment groups included nine to ten mice. Additionally, tumor volumes of animals that were euthanized due to tumor load were carried forward for as long as they were larger than the group median tumor volume (last observation carried forward (LOCF) values). Curves were discontinued for groups with less than 50% animals alive. (C) Graph showing IFNα serum level 60 min after first injection for the 4 groups (control (vehicle); BNT411 alone; oxaliplatin alone; BNT411 and oxaliplatin). IFNα levels in control and test groups are shown by vertical bars (±SEM), Statistical significance between groups is indicated by horizontal lines. P-value summary: ****=p≤0.0001; ***=p≤0.001; **=p≤0.01, […].
Serum levels of IFNα were measured by sandwich ELISA (Pbl Assay Systems) according to manufacturer's instructions.
BALB/c mice were inoculated s.c. with 2.5×10^5−5×10^5 CT26-WT into the flank, respectively. Once tumors reached palpable sizes, mice were randomly divided into treatment and control groups. Tumor volume was measured unblinded with a caliper and calculated using the formula (a×b^2)/2 (a being the largest and b being the smallest diameter of the tumor). Tumor growth was documented as mean tumor size with standard error disregarding single distant outliers. Treatment was initiated after 7-10 d with tumors having reached an average volume of about 10 mm^3. […]
Oxaliplatin was administered intraperitoneally (i.p.) (5 mg/kg, four times with 4 to 5 days between injections). […] Anti-tumor efficacy was evaluated by group mean tumor volumes in test versus control groups (vehicle only) on study days 33 and 42, (at least 50% of test and control animals alive). IFNα levels in plasma were analyzed 1 h after first BNT411 administration and gp70+ T-cell populations in blood on study days 34 and 41.

In experiment [3] the test system is Human whole blood. Kind of experiment: Cytokine release in human whole blood treated in vitro (CBA). Type of experiment: cell-based. On the procedure:
FIG. 7. Release of certain cytokines upon treatment of whole blood from human donors with BNT411 at various concentrations. Whole blood drawn from healthy human volunteers was treated in vitro with BNT411 to investigate the induction of the following cytokines/chemokines: IFNα, IP-10, IL-6, and TNFα. BNT411 concentrations ranging from 0.1 nM (1×) to 7.5 μM (75000×). The fold increase to baseline is shown for each cytokine and BNT411 concentration tested.
as §1
The CBA is performed with the frozen/thawed plasma samples according to the manufacturer's instructions for ProCarta multiplex kits. For evaluation of cytokine concentrations, assay duplicates of all samples are measured by using the luminex system. After checking standard curves with the instrument control system (Bio-Plex Manager 4.1.1) the raw data are transferred to excel. Graphical analysis is performed with GraphPad Prism 6.
Human whole blood was obtained from healthy donors and treated in vitro with BNT411 (concentration range: 0.1 nM to […]). 24 h after stimulation secretion of several cytokines, including IFNα, IP-10, IL-6, and TNFα, was analyzed by a multiplexed CBA.

As to `COCCc1nc2c(N)nc3ccccc3c2n1CCCCN(C(C)=O)C1CCOCC1` [BNT411], in experiment [1], the “amount of IFNα induced compared to imiquimod (R837), resiquimod (R848) and 852A” value is recorded as “significantly higher amount”; the “concentrations inducing IFNα, fold lower compared to imiquimod (R837), resiquimod (R848) and 852A” value is on record as 10 to 30 fold. The “anti-tumor efficacy, T/C value” in experiment [2] (BNT411 3 mg/kg i.v. eight times, oxaliplatin 5 mg/kg i.p. four times, group mean tumor volumes test vs control) stood at 65.8%. For the same compound, in experiment [2] (mouse, in vivo), the “effect on tumor growth (conclusion)” value was “anti-tumor activity”. In addition, the “IFNα levels, BNT411 monotherapy group vs combination of BNT411 and oxaliplatin” value in experiment [2] (two-way ANOVA) is “statistically significantly higher”. Moreover, in experiment [3] (FIG. 7), the “concentrations required for inducing secretion of pyrogenic proinflammatory cytokines (e.g., TNFα) relative to IFNα” value was “up to two orders of magnitude higher”. Further, in experiment [3] (human whole blood, 24 h), the “IFNα secretion induced at fold lower concentrations than needed for induction of IL-6, TNFα, and IL-10” value is listed as 5- to 25 fold; the “concentration at which IL-6, TNFa and IL-10 start to be induced” value is “about 0.06 μM”; the “concentration at which significant IFNα release was induced” value is 0.012 µM; the “concentration for maximal induction of IFNα, fold lower than for maximal induction of IL-6, TNFα, and IL-10” value is given as 25- to 100 fold.
